26 compounds from patent US8883782B2, “Spiro-tetracyclic ring compounds as beta-secretase modulators and methods of use” (Amgen Inc., priority 2010, dated 2014) can be followed below.

pIC50: −log10 of the molar value.

Test [1] concerns the target Beta Secretase enzyme (BACE) (Homo sapiens, UniProt P56817). Put plainly: In vitro enzymatic BACE FRET (fluorescence resonance energy transfer) assay. The test is classed as biochemical. To be noted: average IC50, enzyme assay; read-out: BACE 1 FRET assay. An outline of the steps: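 A peptide bearing a fluorophore and quencher across the cleavage site serves as substrate at 50 nM. Reactions proceed one hour in acidic acetate buffer (0.05 M, pH 4.2) containing 10% DMSO final and 100 uM genapol, then are terminated with Tris and read fluorimetrically.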

Test [2] has as its system Aβ40 in conditioned medium of cells stably expressing Amyloid Precursor Protein (APP). Put plainly: In vitro BACE cell-based assay (Aβ40 in conditioned medium, sandwich ELISA). The following applies: Homo sapiens, HEK293, average IC50; read-out: HEK cell assay. A digest of the protocol:
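Quantification relied on pAb40/6E10 sandwich ELISA with Europium fluorescence counts, and IC50 was fitted versus concentration.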
In general terms: ELISA stands for enzyme-linked immunosorbent assay.

Beta Secretase enzyme (BACE), sequence (P56817 46-501, species assumed): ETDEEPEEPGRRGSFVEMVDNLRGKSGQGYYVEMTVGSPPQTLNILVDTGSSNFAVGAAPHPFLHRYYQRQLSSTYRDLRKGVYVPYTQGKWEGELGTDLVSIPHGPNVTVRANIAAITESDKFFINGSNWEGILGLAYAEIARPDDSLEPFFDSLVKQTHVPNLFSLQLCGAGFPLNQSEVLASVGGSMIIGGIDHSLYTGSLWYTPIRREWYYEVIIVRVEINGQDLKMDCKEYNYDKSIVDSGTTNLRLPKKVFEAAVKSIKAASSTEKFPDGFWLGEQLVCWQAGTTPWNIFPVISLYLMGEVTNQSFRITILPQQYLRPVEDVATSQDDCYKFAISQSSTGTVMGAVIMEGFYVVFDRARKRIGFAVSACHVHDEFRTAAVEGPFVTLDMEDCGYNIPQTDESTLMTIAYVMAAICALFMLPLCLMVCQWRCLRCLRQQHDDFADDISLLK

For `CC(C)(F)COc1cc(F)c2c(c1)[C@]1(COC(N)=N1)c1cc(-c3ccc(F)nc3)ccc1O2` [Example 259, (4S)-4′-fluoro-2′-(2-fluoro-2-methylpropoxy)-7′-(6-fluoro-3-pyridinyl)spiro[1,3-oxazole-4,9′-xanthen]-2-amine], the pIC50 in test [1] is 8.57; in test [2] it was 7.70.

Regarding `NC1=N[C@@]2(CO1)c1cc(-c3ccc(F)nc3)ccc1Oc1c(F)cc(C3=CCOCC3)cc12` [Example 260, (4S)-2′-(3,6-dihydro-2H-pyran-4-yl)-4′-fluoro-7′-(6-fluoro-3-pyridinyl)spiro[1,3-oxazole-4,9′-xanthen]-2-amine], the pIC50 was 8.72 in test [1] and 7.96 in test [2].

Consider `NC1=N[C@@]2(CO1)c1cc(-c3ccc(F)nc3)ccc1Oc1c(F)cc(OC[C@H]3CC3(F)F)cc12` [Example 261, (4S)-2′-(((1R)-2,2-difluorocyclopropyl)methoxy)-4′-fluoro-7′-(6-fluoro-3-pyridinyl)spiro[1,3-oxazole-4,9′-xanthen]-2-amine], for which the pIC50 in test [1] was 8.17; in test [2], 7.14.

`CC(C)(C#N)COc1cc(F)c2c(c1)[C@]1(COC(N)=N1)c1cc(-c3ccc(F)nc3)ccc1O2` [Example 263, 3-(((4S)-2-amino-4′-fluoro-7′-(6-fluoro-3-pyridinyl)spiro[1,3-oxazole-4,9′-xanthen]-2′-yl)oxy)-2,2-dimethylpropanenitrile]: the pIC50 in test [1] was 8.64; in test [2], 7.88.

Consider `COc1cncc(-c2ccc3c(c2)[C@@]2(COC(N)=N2)c2cc(OCC(C)(C)C#N)cc(F)c2O3)c1` [Example 264, 3-(((4S)-2-amino-4′-fluoro-7′-(5-methoxy-3-pyridinyl)spiro[1,3-oxazole-4,9′-xanthen]-2′-yl)oxy)-2,2-dimethylpropanenitrile], for which the pIC50 in test [1] was 9.00; in test [2] it was 8.09.

Turning to `CC(C)(C#N)COc1cc(F)c2c(c1)[C@]1(COC(N)=N1)c1cc(-c3cncc(C#N)c3)ccc1O2` [Example 265, 5-((4S)-2-amino-7′-(2-cyano-2-methylpropoxy)-5′-fluorospiro[1,3-oxazole-4,9′-xanthen]-2′-yl)-3-pyridinecarbonitrile], the pIC50 is 9.10 in test [1] and 8.33 in test [2].

As to `CC1(COc2cc(F)c3c(c2)[C@]2(COC(N)=N2)c2cc(-c4ccc(F)nc4)ccc2O3)COC1` [Example 266, (4S)-4′-fluoro-7′-(6-fluoro-3-pyridinyl)-2′-((3-methyl-3-oxetanyl)methoxy)spiro[1,3-oxazole-4,9′-xanthen]-2-amine], the pIC50 in test [1] was 8.66; in test [2] it was 8.17.

For `CC1(COc2cc(F)c3c(c2)[C@]2(COC(N)=N2)c2cc(-c4cnccn4)ccc2O3)COC1` [Example 267, (4S)-4′-fluoro-2′-((3-methyl-3-oxetanyl)methoxy)-7′-(2-pyrazinyl)spiro[1,3-oxazole-4,9′-xanthen]-2-amine], the pIC50 is 8.51 in test [1] and 7.92 in test [2].

As for `NC1=N[C@@]2(CO1)c1cc(-c3cnccn3)ccc1Oc1c(F)cc(N3C[C@@H]4C[C@H]3CO4)cc12` [Example 268, (4S)-4′-fluoro-2′-((1S,4S)-2-oxa-5-azabicyclo[2.2.1]hept-5-yl)-7′-(2-pyrazinyl)spiro[1,3-oxazole-4,9′-xanthen]-2-amine], the pIC50 in test [1] is 7.98; in test [2], 7.58.

For the compound `NC1=N[C@@]2(CO1)c1cc(-c3cnccn3)ccc1Oc1c(F)cc(N3CCOCC3)cc12` [Example 269, (4S)-4′-fluoro-2′-(4-morpholinyl)-7′-(2-pyrazinyl)spiro[1,3-oxazole-4,9′-xanthen]-2-amine], the pIC50 was 8.28 in test [1] and 7.73 in test [2].

As to `NC1=N[C@@]2(CO1)c1cc(-c3cnccn3)ccc1Oc1c(F)cc(OCC3CCOCC3)cc12` [Example 270, (4S)-4′-fluoro-7′-(2-pyrazinyl)-2′-(tetrahydro-2H-pyran-4-ylmethoxy)spiro[1,3-oxazole-4,9′-xanthen]-2-amine], the pIC50 in test [1] is 8.27; in test [2], 7.47.

As to `NC1=N[C@@]2(CO1)c1cc(-c3cccnc3F)ccc1Oc1c(F)cc(N3CCC(F)(F)C3)cc12` [Example 271, (4S)-2′-(3,3-difluoro-1-pyrrolidinyl)-4′-fluoro-7′-(2-fluoro-3-pyridinyl)spiro[1,3-oxazole-4,9′-xanthen]-2-amine], the pIC50 is 9.30 in test [1] and 8.39 in test [2].

Take `CC(C)(C#N)COc1cc(F)c2c(c1)[C@]1(COC(N)=N1)c1cc(-c3cncc(F)c3)ccc1O2` [Example 272, 3-(((4S)-2-amino-4′-fluoro-7′-(5-fluoro-3-pyridinyl)spiro[1,3-oxazole-4,9′-xanthen]-2′-yl)oxy)-2,2-dimethylpropanenitrile]: the pIC50 in test [1] was 9.30; in test [2], 8.23.

`CC1(COc2cc(F)c3c(c2)[C@]2(COC(N)=N2)c2cc(-c4cncc(F)c4)ccc2O3)COC1` [Example 273, (4S)-4′-fluoro-7′-(5-fluoro-3-pyridinyl)-2′-((3-methyl-3-oxetanyl)methoxy)spiro[1,3-oxazole-4,9′-xanthen]-2-amine]: the figures for the pIC50 in test [1] and in test [2] were 9.15 and 8.51, respectively.

Turning to `C[C@@H]1CN(c2cc(F)c3c(c2)[C@]2(COC(N)=N2)c2cc(-c4cncc(F)c4)ccc2O3)C[C@H](C)O1` [Example 274, (4S)-2′-((2R,6S)-2,6-dimethyl-4-morpholinyl)-4′-fluoro-7′-(5-fluoro-3-pyridinyl)spiro[1,3-oxazole-4,9′-xanthen]-2-amine], the pIC50 is 8.54 in test [1] and 7.98 in test [2].

With `COc1ccc(-c2cc(F)c3c(c2)[C@]2(COC(N)=N2)c2cc(-c4cccnc4F)ccc2O3)nn1` [Example 275, (4S)-4′-fluoro-7′-(2-fluoro-3-pyridinyl)-2′-(6-methoxy-3-pyridazinyl)spiro[1,3-oxazole-4,9′-xanthen]-2-amine], the pIC50 in test [1] is 9.15; in test [2] it was 8.10.

As for `NC1=N[C@@]2(CO1)c1cc(-c3cncc(F)c3)ccc1Oc1c(F)cc(N3C[C@@H]4C[C@H]3CO4)cc12` [Example 276, (4S)-4′-fluoro-7′-(5-fluoro-3-pyridinyl)-2′-((1S,4S)-2-oxa-5-azabicyclo[2.2.1]hept-5-yl)spiro[1,3-oxazole-4,9′-xanthen]-2-amine], the values for the pIC50 in test [1] and in test [2] were 9.10 and 8.48, respectively.

For the compound `NC1=N[C@@]2(CO1)c1cc(-c3cncc(F)c3)ccc1Oc1c(F)cc(N3CCOCC3)cc12` [Example 277, (4S)-4′-fluoro-7′-(5-fluoro-3-pyridinyl)-2′-(4-morpholinyl)spiro[1,3-oxazole-4,9′-xanthen]-2-amine], the pIC50 in test [1] was 8.82; in test [2], 8.19.

With `NC1=N[C@@]2(CO1)c1cc(-c3cncc(F)c3)ccc1Oc1c(F)cc(C3=CCCOC3)cc12` [Example 278, (4S)-2′-(5,6-dihydro-2H-pyran-3-yl)-4′-fluoro-7′-(5-fluoro-3-pyridinyl)spiro[1,3-oxazole-4,9′-xanthen]-2-amine], the pIC50 in test [1] is 9.40; in test [2] it was 8.41.

With `COC1CN(c2cc(F)c3c(c2)[C@]2(COC(N)=N2)c2cc(-c4cccnc4F)ccc2O3)C1` [Example 281, (4S)-4′-fluoro-7′-(2-fluoro-3-pyridinyl)-2′-(3-methoxy-1-azetidinyl)spiro[1,3-oxazole-4,9′-xanthen]-2-amine], the pIC50 in test [1] was 8.70; in test [2], 8.27.

For `CC1(C)CN(c2cc(F)c3c(c2)[C@]2(COC(N)=N2)c2cc(-c4cncc(F)c4)ccc2O3)CCO1` [Example 282, (4S)-2′-(2,2-dimethyl-4-morpholinyl)-4′-fluoro-7′-(5-fluoro-3-pyridinyl)spiro[1,3-oxazole-4,9′-xanthen]-2-amine], the pIC50 in test [1] is 8.70; in test [2], 8.09.

On to `NC1=N[C@@]2(CO1)c1cc(-c3cncc(F)c3)ccc1Oc1c(F)cc(N3CC4CCC(C3)O4)cc12` [Example 283, (4S)-4′-fluoro-7′-(5-fluoro-3-pyridinyl)-2′-(8-oxa-3-azabicyclo[3.2.1]oct-3-yl)spiro[1,3-oxazole-4,9′-xanthen]-2-amine], for which the pIC50 was 9.40 in test [1] and 8.49 in test [2].

For the compound `NC1=N[C@@]2(CO1)c1cc(-c3cncc(F)c3)ccc1Oc1c(F)cc([C@@H]3CCCOC3)cc12` [Example 284, (4S)-4′-fluoro-7′-(5-fluoro-3-pyridinyl)-2′-((3S)-tetrahydro-2H-pyran-3-yl)spiro[1,3-oxazole-4,9′-xanthen]-2-amine], the pIC50 in test [1] was 8.66; in test [2], 7.87.

`NC1=N[C@@]2(CO1)c1cc(-c3cncc(F)c3)ccc1Oc1c(F)cc([C@H]3CCCOC3)cc12` [Example 285, (4S)-4′-fluoro-7′-(5-fluoro-3-pyridinyl)-2′-((3R)-tetrahydro-2H-pyran-3-yl)spiro[1,3-oxazole-4,9′-xanthen]-2-amine]: the pIC50 in test [1] was 8.62; in test [2], 7.69.

Consider `NC1=N[C@@]2(CO1)c1cc(-c3cccnc3F)ccc1Oc1c(F)cc([C@@H]3CCCOC3)cc12` [Example 286, (4S)-4′-fluoro-7′-(2-fluoro-3-pyridinyl)-2′-((3S)-tetrahydro-2H-pyran-3-yl)spiro[1,3-oxazole-4,9′-xanthen]-2-amine], for which the pIC50 was 8.72 in test [1] and 7.80 in test [2].

Consider `NC1=N[C@@]2(CO1)c1cc(-c3cccnc3F)ccc1Oc1c(F)cc([C@H]3CCCOC3)cc12` [Example 287, (4S)-4′-fluoro-7′-(2-fluoro-3-pyridinyl)-2′-((3R)-tetrahydro-2H-pyran-3-yl)spiro[1,3-oxazole-4,9′-xanthen]-2-amine], for which the pIC50 is 8.77 in test [1] and 7.66 in test [2].
